Experimental data published in ChEMBL document CHEMBL1138947, “Potent inhibitors of the Qi site of the mitochondrial respiration complex III” (J Med Chem, 2006).
Activity calls are given as the source filed them. No cut-off for these calls is given here.

How the values were obtained:
Parastagonospora nodorum [1] = assay: Inhibition of Septoria nodorum growth in wheat at 40 ppm; assay type: functional, organism-based
Parastagonospora nodorum [2] = assay: Inhibition of Septoria nodorum growth; assay type: functional
[3] = target: T1, Mitochondrial complex II; succinate dehydrogenase (Septoria tritici, UniProt G4XX53+O42772); assay: Inhibition of Septoria nodorum succinate dehydrogenase and Qi site of mitochondrial respiratory chain complex 3 by FMET2-3 assay; assay type: protein-complex assay, Parastagonospora nodorum
T1 sequence (G4XX53 whole entry): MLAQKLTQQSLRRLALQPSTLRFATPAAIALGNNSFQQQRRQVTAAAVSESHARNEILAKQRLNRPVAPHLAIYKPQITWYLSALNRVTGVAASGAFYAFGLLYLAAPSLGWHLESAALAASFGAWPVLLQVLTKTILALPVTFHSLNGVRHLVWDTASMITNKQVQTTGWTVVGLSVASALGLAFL
T1 sequence (O42772 whole entry): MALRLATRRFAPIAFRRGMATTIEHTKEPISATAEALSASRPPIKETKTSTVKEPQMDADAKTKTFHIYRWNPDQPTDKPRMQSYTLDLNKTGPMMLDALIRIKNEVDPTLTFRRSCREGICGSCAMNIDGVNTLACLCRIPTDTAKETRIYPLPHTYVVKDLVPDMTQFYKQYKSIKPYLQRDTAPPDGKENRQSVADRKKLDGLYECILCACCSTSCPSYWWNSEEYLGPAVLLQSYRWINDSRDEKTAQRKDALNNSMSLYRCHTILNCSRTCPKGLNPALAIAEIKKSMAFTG

Compound | Activity (Parastagonospora nodorum [1]) | GR50 (Parastagonospora nodorum [2]) [µM] | IC50 [3] [nM]
O=C(Nc1ccc(Oc2ccc(C(F)(F)F)cc2)cc1)c1ccc2cn[nH]c2c1O | inactive | 0.343 | 26
O=C(Nc1ccc(Oc2ccccc2)cc1)c1ccc2[nH]nnc2c1O | inactive | >30 | 
O=C(Nc1ccc(Oc2ccccc2)cc1)c1ccc2[nH]cnc2c1O | inactive | >30 | > 30000
O=C(Nc1ccc(Oc2ccc(C(F)(F)F)cc2)cc1)c1ccc2[nH]nnc2c1O | inactive | >30 | 5
O=C(Nc1ccc(Oc2ccccc2)cc1)c1ccc2nn[nH]c2c1O |  |  | 32
CCCCCC[C@H]1C(=O)O[C@H](C)[C@H](NC(=O)c2cccc(NC=O)c2O)C(=O)O[C@@H](C)[C@@H]1OC(=O)CC(C)C [ANTIMYCIN A] | inactive | 0.033 | 2
O=C(Nc1ccc(Oc2ccc(C(F)(F)F)cc2)cc1)c1sc2c[nH]nc2c1O | inactive | 11.517 | 26
O=C(Nc1ccc(Oc2ccccc2)cc1)c1ccc2c[nH]nc2c1O | inactive | 1.909 | 127
